Results: patent US20220324835A1 (Nurix Therapeutics, Inc., priority 2018, published 2022)
Read-outs that look alike come from different tables or passages of the source.

What was measured:
T-cell = assay: CD25 cell surface staining on T-cells co-stimulated with anti-CD3 and anti-CD28 antibody (Biological Example 2); assay type: cell-based, human; conditions: Homo sapiens, T-cell
Summary of the method: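 T-cells were stimulated with anti-CD3 antibody alone or with anti-CD28 antibody, in the presence or absence of Cbl-b inhibitor. IL-2 secretion or CD25 surface staining was measured, and values expressed as fold over the uninhibited baseline […].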

Cbl-b (residues 36-427) = Cbl-b (residues 36-427) (Homo sapiens, UniProt Q13191); assay: Cbl-b binding assay (SPR, Biacore T200); conditions: 20° C., 1:1 binding model
Cbl-b (residues 36-427), sequence (Q13191 36-427): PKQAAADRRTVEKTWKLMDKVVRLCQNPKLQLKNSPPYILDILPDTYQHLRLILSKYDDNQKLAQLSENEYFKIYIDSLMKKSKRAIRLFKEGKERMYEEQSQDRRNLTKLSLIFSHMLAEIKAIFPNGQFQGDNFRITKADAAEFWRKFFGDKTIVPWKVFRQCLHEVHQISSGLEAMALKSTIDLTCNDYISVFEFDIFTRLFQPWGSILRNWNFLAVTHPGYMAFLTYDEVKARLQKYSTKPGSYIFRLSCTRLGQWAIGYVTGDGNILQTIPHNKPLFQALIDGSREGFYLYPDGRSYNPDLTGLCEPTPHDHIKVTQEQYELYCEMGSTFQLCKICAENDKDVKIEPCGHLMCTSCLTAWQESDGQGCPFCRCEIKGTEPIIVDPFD
Summary of the method: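 Steps: capture protein on NeutrAvidin surface; inject compound dilutions (8 or 10 points from 100 or 50 μM) 50 s; allow 90-180 s dissociation; regenerate 20 s with 0.3 M NaCl. Runs at 20° C in HEPES pH 7.5/100 mM NaCl/2% DMSO; 1:1 fitting.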

Cbl-b = Cbl-b (Homo sapiens, UniProt Q13191); assay: Cbl-b activity assay (Cbl-b inhibition assay), TR-FRET of Cbl-b interaction with UbcH5B-Ub; assay type: biochemical; conditions: assay buffer with 100 mM NaCl, 60 nM Src kinase; read-out: Cbl-b activity IC50
Cbl-b, sequence (Q13191 36-427): as above
Summary of the method: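 UbcH5B (C85K) conjugated to N-terminally Bodipy-Fluorescein-labeled ubiquitin served as the fluorescent partner. After compound preincubation, Src kinase (60 nM) with 1 mM ATP and 5 mM MgCl2 (final) was added for 1.5 h, followed by a further 1 h incubation. Some values were obtained with 50 mM NaCl and 30 nM Src.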

[1] = fold change over baseline, 0.3 μM Cbl-b inhibitor, primary human total T-cells, read-out: CD25 staining Anti-CD3/Anti-CD28 stimulation
[2] = fold change over baseline, 1 μM Cbl-b inhibitor, primary human total T-cells, read-out: CD25 staining Anti-CD3/Anti-CD28 stimulation
[3] = fold change over baseline, 4 μM Cbl-b inhibitor, primary human total T-cells, read-out: CD25 staining Anti-CD3/Anti-CD28 stimulation
[4] = 0.3 μM compound, primary human total T-cells, baseline = anti-CD3/anti-CD28 stimulated cells without inhibitor, read-out: CD25 staining, Anti-CD3/Anti-CD28 stimulation, fold change over baseline
[5] = 1 μM compound, primary human total T-cells, baseline = anti-CD3/anti-CD28 stimulated cells without inhibitor, read-out: CD25 staining, Anti-CD3/Anti-CD28 stimulation, fold change over baseline
[6] = 4 μM compound, primary human total T-cells, baseline = anti-CD3/anti-CD28 stimulated cells without inhibitor, read-out: CD25 staining, Anti-CD3/Anti-CD28 stimulation, fold change over baseline
[7] = 0.3 μM Cbl-b inhibitor, fold change over baseline (anti-CD3/anti-CD28 stimulated T-cells without inhibitor), read-out: CD25 staining Anti-CD3/Anti-CD28 stimulation
[8] = 1 μM Cbl-b inhibitor, fold change over baseline (anti-CD3/anti-CD28 stimulated T-cells without inhibitor), read-out: CD25 staining Anti-CD3/Anti-CD28 stimulation

CCNc1cc([C@H](C)Cc2nncn2C)cc(N2Cc3c(cccc3C(F)(F)F)C2=O)n1 [Compound 360, (R)-2-(6-(ethylamino)-4-(1-(4-methyl-4H-1,2,4-triazol-3-yl)propan-2-yl)pyridin-2-yl)-4-(trifluoromethyl)isoindolin-1-one]
fold induction at 0.3 µM (T-cell; [1]): 1.31 to 1.5
fold induction at 1 µM (T-cell; [2]): 1.51 to 1.75
fold induction at 4 µM (T-cell; [3]): 1.51 to 1.75
Kd (Cbl-b (residues 36-427)): < 100 nM
IC50 (Cbl-b): < 100 nM

CNc1cc([C@H](C)Cc2nncn2C)cc(N2Cc3c(cccc3C(F)(F)F)C2=O)n1 [Compound 363, (R)-2-(4-(1-(4-methyl-4H-1,2,4-triazol-3-yl)propan-2-yl)-6-(methylamino)pyridin-2-yl)-4-(trifluoromethyl)isoindolin-1-one]
fold induction at 0.3 µM (T-cell; [1]): 1.01 to 1.3
fold induction at 1 µM (T-cell; [2]): 1.01 to 1.3
fold induction at 4 µM (T-cell; [3]): 1.31 to 1.5
Kd (Cbl-b (residues 36-427)): < 100 nM
IC50 (Cbl-b): < 100 nM

Cn1cnnc1C(F)(F)[C@](C)(F)c1cccc(N2Cc3c(cc(CN4CC[C@H](F)C4)cc3C(F)(F)F)C2=O)c1 [Compound 447, 6-(((S)-3-fluoropyrrolidin-1-yl)methyl)-2-(3-((R)-1,1,2-trifluoro-1-(4-methyl-4H-1,2,4-triazol-3-yl)propan-2-yl)phenyl)-4-(trifluoromethyl)isoindolin-1-one]
fold induction at 0.3 µM (T-cell; [4]): 1.31 to 1.5
fold induction at 1 µM (T-cell; [5]): 1.51 to 1.75
fold induction at 4 µM (T-cell; [6]): 1.51 to 1.75
Kd (Cbl-b (residues 36-427)): < 100 nM
IC50 (Cbl-b): < 100 nM

Cn1cnnc1C(F)(F)[C@](C)(F)c1cccc(N2Cc3c(cc(CN4CCC(F)(F)C4)cc3C(F)(F)F)C2=O)c1 [Compound 448, (R)-6-((3,3-difluoropyrrolidin-1-yl)methyl)-2-(3-(1,1,2-trifluoro-1-(4-methyl-4H-1,2,4-triazol-3-yl)propan-2-yl)phenyl)-4-(trifluoromethyl)isoindolin-1-one]
fold induction at 0.3 µM (T-cell; [4]): 1.01 to 1.3
fold induction at 1 µM (T-cell; [5]): 1.01 to 1.3
fold induction at 4 µM (T-cell; [6]): 1.31 to 1.5
Kd (Cbl-b (residues 36-427)): < 100 nM
IC50 (Cbl-b): < 100 nM

Cn1cnnc1CC1(c2cccc(NC(=O)c3cc(CN4CC[C@H](F)C4)cc(C4CC4)n3)c2)COC1 [Compound 496, 6-cyclopropyl-4-{[(3S)-3-fluoropyrrolidin-1-yl]methyl}-N-(3-{3-[(4-methyl-1,2,4-triazol-3-yl)methyl]oxetan-3-yl}phenyl)pyridine-2-carboxamide]
fold induction at 0.3 µM (T-cell; [4]): 1.51 to 1.75
fold induction at 1 µM (T-cell; [5]): 1.51 to 1.75
Kd (Cbl-b (residues 36-427)): < 100 nM
IC50 (Cbl-b): < 100 nM

C[C@@H](c1cc2c(c(C(F)(F)F)c1)CN(c1cccc(C3(Cc4nncn4C)COC3)c1)C2=O)N1CCC(C)(F)CC1 [Example 553a, (S)-6-(1-(4-fluoro-4-methylpiperidin-1-yl)ethyl)-2-(3-(3-((4-methyl-4H-1,2,4-triazol-3-yl)methyl)oxetan-3-yl)phenyl)-4-(trifluoromethyl)isoindolin-1-one]
fold induction at 0.3 µM (T-cell; [4]): > 1.76
fold induction at 1 µM (T-cell; [5]): > 1.76
Kd (Cbl-b (residues 36-427)): < 100 nM
IC50 (Cbl-b): < 100 nM

C[C@H](c1cc2c(c(C(F)(F)F)c1)CN(c1cccc(C3(C(F)(F)c4nncn4C)COC3)c1)C2=O)N1CC[C@H](F)C1 [Example 571, 2-(3-(3-(difluoro(4-methyl-4H-1,2,4-triazol-3-yl)methyl)oxetan-3-yl)phenyl)-6-((R)-1-((S)-3-fluoropyrrolidin-1-yl)ethyl)-4-(trifluoromethyl)isoindolin-1-one]
fold induction at 0.3 µM (T-cell; [7]): > 1.76
fold induction at 1 µM (T-cell; [8]): > 1.76
Kd (Cbl-b (residues 36-427)): < 100 nM
IC50 (Cbl-b): < 100 nM

C[C@H](c1cc2c(c(C(F)(F)F)c1)CN(c1cccc(C3([C@@H](F)c4nncn4C)COC3)c1)C2=O)N1CCC2(CC2)C1 [Example 576, 6-((R)-1-(5-azaspiro[2.4]heptan-5-yl)ethyl)-2-(3-(3-((R)-fluoro(4-methyl-4H-1,2,4-triazol-3-yl)methyl)oxetan-3-yl)phenyl)-4-(trifluoromethyl)isoindolin-1-one]
fold induction at 0.3 µM (T-cell; [7]): > 1.76
fold induction at 1 µM (T-cell; [8]): > 1.76
Kd (Cbl-b (residues 36-427)): < 100 nM
IC50 (Cbl-b): < 100 nM

Cn1cnnc1CC1(c2cccc(N3Cc4c(cc(CN5CCC(C)(F)CC5)cc4C(F)(F)F)C3=O)c2)COC1 [Example 620, 6-((4-fluoro-4-methylpiperidin-1-yl)methyl)-2-(3-(3-((4-methyl-4H-1,2,4-triazol-3-yl)methyl)oxetan-3-yl)phenyl)-4-(trifluoromethyl)isoindolin-1-one]
fold induction at 0.3 µM (T-cell; [7]): 1.31 to 1.5
fold induction at 1 µM (T-cell; [8]): 1.31 to 1.5
Kd (Cbl-b (residues 36-427)): < 100 nM
IC50 (Cbl-b): < 100 nM

Cn1cnnc1[C@@H](F)C1(c2cccc(N3Cc4c(cc(CN5CCC(F)CC5)cc4C(F)(F)F)C3=O)c2)COC1 [Example 670a, (S)-2-(3-(3-(fluoro(4-methyl-4H-1,2,4-triazol-3-yl)methyl)oxetan-3-yl)phenyl)-6-((4-fluoropiperidin-1-yl)methyl)-4-(trifluoromethyl)isoindolin-1-one]
fold induction at 0.3 µM (T-cell; [7]): 1.51 to 1.75
fold induction at 1 µM (T-cell; [8]): 1.51 to 1.75
Kd (Cbl-b (residues 36-427)): < 100 nM
IC50 (Cbl-b): < 100 nM

Cn1cnnc1[C@H](F)C1(c2cccc(N3Cc4c(cc(CN5CCC(F)CC5)cc4C(F)(F)F)C3=O)c2)COC1 [Example 670b, (R)-2-(3-(3-(fluoro(4-methyl-4H-1,2,4-triazol-3-yl)methyl)oxetan-3-yl)phenyl)-6-((4-fluoropiperidin-1-yl)methyl)-4-(trifluoromethyl)isoindolin-1-one]
fold induction at 0.3 µM (T-cell; [7]): > 1.76
fold induction at 1 µM (T-cell; [8]): > 1.76
Kd (Cbl-b (residues 36-427)): < 100 nM
IC50 (Cbl-b): < 100 nM
